Experimental data taken from PMC8462848, “Quinazolin-4(3H)-one based potential multiple tyrosine kinase inhibitors with excellent cytotoxicity” (Journal of Enzyme Inhibition and Medicinal Chemistry, 2021).

Experiments:
[1] = test system: A2780 (human ovary adenocarcinoma) cells; experiment: MTT cytotoxicity assay, A2780; assay type: cell-based
Description: (§1) The cytotoxicity of the synthesised quinazolin-4(3H)-ones was evaluated by MTT assay, as previously described. Two cancer cell lines, MCF7 (human breast adenocarcinoma) and A2780 (human ovary adenocarcinoma), were used in this study, which were obtained from the ATCC (Rockville, MD, USA). […] Additionally, compounds were prepared at the same medium to obtain serial dilutions (50, 25, […] and 0.1 µM). […] The media were aspirated, and the formazan crystals were solubilised by adding 150 µL DMSO. Absorbance was read on a multi-plate reader (BioRad) at […]. […] The data were obtained from triplicates and analysed using statistical software.

[2] = test system: MCF7 (human breast adenocarcinoma) cells; experiment: MTT cytotoxicity assay, MCF7; assay type: cell-based
Description: as §1

[3] = biological target: T1, HER2 (Homo sapiens, UniProt P04626); experiment: HER2 kinase assay kit, Kinase-Glo MAX luminescence; assay type: biochemical; conditions: for inhibition at 0.01 µM / inhibition at 0.1 µM / inhibition at 1 µM / inhibition at 10 µM: one experimental data; for IC50: mean ± SD of triplicate
T1 construct: purchased #40721
Description: (§2) The HER2/EGFR/VEGFR2 assay kit is designed to measure HER2/EGFR/VEGFR-2 inhibitory activity for screening and profiling applications, using Kinase-Glo® MAX as a detection reagent. The HER2/EGFR/VEGFR2 assay kit comes in a convenient 96-well format, with enough purified recombinant HER2/EGFR/VEGFR2 enzyme, HER2/EGFR/VEGFR2 substrate, ATP and kinase buffer 1 for 100 enzyme reactions. […] […] The quinazolin-4(3H)-ones were diluted in 10% DMSO and 5 μl of the dilution was added to a 50 μl reaction so that the final concentration of DMSO was 1% in all of the reactions. All of the enzymatic reactions were conducted at 30 °C for 40 min. The 50 μl reaction mixture contained 40 mM Tris, pH 7.4, 10 mM MgCl2, 0.1 mg/mL BSA, 1 mM DTT, 10 mM ATP, kinase substrate and the enzyme HER2 / EGFR / VEGFR2. After the enzymatic reaction, 50 μl of Kinase-Glo® MAX luminescence kinase assay solution was added to each reaction and the plates were incubated for 5 min at room temperature. Luminescence signal was measured using a Bio Tek Synergy 2 microplate reader (For detail enzyme assay protocol and the results, please see supplementary data).

[4] = biological target: T2, CDK2/CyclinA2 (Homo sapiens, UniProt P24941); experiment: CDK2 Assay Kit, Kinase-Glo MAX luminescence; assay type: biochemical; conditions: one experimental data
T2 construct: purchased #79599
Description: The CDK2 Assay Kit is designed to measure CDK2/CyclinA2 activity for screening and profiling applications, using Kinase-Glo® MAX as a detection reagent. The CDK2 Assay Kit comes in a convenient 96-well format, with enough purified recombinant CDK2/CyclinA2 enzyme, CDK substrate peptide, ATP and kinase assay buffer for 100 enzyme reactions. […] […] The compounds were diluted in 10% DMSO and 5 μl of the dilution was added to a 50 μl reaction so that the final concentration of DMSO was 1% in all of the reactions. All of the enzymatic reactions were conducted at 30 °C for 40 min. The 50 μl reaction mixture contained 40 mM Tris, pH 7.4, 10 mM MgCl2, 0.1 mg/mL BSA, 1 mM DTT, 10 mM ATP, Kinase substrate and the enzyme (CDK2/CyclinA2). After the enzymatic reaction, 50 μl of Kinase-Glo® MAX Luminescence kinase assay solution was added to each reaction and the plates were incubated for 5 min at room temperature. Luminescence signal was measured using a Bio Tek Synergy 2 microplate reader.
Figure S1. Calculation of the IC20 Values of Protein Kinase Enzyme CDK2 for 2f
* All the kinase IC20 (µM) were calculated according to the above equations.
(1 picture or pasted object on this page, not shown here)

[5] = biological target: T2, CDK2/CyclinA2; experiment: CDK2 Assay Kit, Kinase-Glo MAX luminescence; assay type: biochemical; conditions: mean ± SD of triplicate
[6] = biological target: T3, EGFR (Homo sapiens, UniProt P00533); experiment: EGFR kinase assay kit, Kinase-Glo MAX luminescence; assay type: biochemical; conditions: for inhibition at 0.01 µM / inhibition at 0.1 µM / inhibition at 1 µM / inhibition at 10 µM: one experimental data; for IC50: mean ± SD of triplicate
T3 construct: purchased #40321
Description: as §2

[7] = biological target: T4, VEGFR2 (Homo sapiens, UniProt P35968); experiment: VEGFR2 kinase assay kit, Kinase-Glo MAX luminescence; assay type: biochemical; conditions: for inhibition at 0.01 µM / inhibition at 0.1 µM / inhibition at 1 µM / inhibition at 10 µM: one experimental data, read-out: % Inhibition VEGFR-2; for IC50: mean ± SD of triplicate
T4 construct: purchased #40325
Description: as §2

[8] = Homo sapiens, A2780, mean ± SD of triplicate
[9] = Homo sapiens, MCF7, mean ± SD of triplicate

T4 sequence (P35968 20-1356): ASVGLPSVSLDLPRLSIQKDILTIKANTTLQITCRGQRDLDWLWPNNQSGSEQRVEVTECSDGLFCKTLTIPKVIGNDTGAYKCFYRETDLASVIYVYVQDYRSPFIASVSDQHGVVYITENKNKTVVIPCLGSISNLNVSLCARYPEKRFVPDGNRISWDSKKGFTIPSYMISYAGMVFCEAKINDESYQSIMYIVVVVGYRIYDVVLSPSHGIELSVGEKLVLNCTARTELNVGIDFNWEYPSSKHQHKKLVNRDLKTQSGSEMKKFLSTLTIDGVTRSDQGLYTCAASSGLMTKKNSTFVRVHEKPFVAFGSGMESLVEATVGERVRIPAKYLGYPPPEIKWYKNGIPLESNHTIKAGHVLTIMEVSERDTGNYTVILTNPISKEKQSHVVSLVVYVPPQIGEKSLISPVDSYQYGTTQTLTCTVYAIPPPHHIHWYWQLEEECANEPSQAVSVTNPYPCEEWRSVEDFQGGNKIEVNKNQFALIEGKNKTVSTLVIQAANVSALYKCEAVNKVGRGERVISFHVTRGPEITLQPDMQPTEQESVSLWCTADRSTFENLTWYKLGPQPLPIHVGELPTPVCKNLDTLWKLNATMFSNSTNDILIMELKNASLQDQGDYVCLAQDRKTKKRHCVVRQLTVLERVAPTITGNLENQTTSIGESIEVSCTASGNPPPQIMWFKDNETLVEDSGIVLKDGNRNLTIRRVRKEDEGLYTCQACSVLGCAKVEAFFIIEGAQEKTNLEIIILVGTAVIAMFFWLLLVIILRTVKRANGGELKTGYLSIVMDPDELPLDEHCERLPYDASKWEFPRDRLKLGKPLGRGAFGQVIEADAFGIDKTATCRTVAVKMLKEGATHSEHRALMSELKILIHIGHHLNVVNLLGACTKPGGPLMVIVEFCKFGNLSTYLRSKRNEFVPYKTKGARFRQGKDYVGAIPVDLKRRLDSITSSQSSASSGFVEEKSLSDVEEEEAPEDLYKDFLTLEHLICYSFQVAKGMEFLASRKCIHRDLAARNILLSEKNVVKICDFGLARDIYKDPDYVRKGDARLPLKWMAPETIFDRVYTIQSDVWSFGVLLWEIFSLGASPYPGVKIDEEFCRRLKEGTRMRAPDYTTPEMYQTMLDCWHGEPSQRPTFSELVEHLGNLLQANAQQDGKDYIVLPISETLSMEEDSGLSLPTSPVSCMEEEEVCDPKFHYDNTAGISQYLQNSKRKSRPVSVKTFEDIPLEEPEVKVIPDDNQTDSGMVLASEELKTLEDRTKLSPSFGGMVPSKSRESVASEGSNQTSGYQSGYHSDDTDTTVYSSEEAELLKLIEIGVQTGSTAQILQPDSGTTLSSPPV
T3 sequence (P00533 25-1210): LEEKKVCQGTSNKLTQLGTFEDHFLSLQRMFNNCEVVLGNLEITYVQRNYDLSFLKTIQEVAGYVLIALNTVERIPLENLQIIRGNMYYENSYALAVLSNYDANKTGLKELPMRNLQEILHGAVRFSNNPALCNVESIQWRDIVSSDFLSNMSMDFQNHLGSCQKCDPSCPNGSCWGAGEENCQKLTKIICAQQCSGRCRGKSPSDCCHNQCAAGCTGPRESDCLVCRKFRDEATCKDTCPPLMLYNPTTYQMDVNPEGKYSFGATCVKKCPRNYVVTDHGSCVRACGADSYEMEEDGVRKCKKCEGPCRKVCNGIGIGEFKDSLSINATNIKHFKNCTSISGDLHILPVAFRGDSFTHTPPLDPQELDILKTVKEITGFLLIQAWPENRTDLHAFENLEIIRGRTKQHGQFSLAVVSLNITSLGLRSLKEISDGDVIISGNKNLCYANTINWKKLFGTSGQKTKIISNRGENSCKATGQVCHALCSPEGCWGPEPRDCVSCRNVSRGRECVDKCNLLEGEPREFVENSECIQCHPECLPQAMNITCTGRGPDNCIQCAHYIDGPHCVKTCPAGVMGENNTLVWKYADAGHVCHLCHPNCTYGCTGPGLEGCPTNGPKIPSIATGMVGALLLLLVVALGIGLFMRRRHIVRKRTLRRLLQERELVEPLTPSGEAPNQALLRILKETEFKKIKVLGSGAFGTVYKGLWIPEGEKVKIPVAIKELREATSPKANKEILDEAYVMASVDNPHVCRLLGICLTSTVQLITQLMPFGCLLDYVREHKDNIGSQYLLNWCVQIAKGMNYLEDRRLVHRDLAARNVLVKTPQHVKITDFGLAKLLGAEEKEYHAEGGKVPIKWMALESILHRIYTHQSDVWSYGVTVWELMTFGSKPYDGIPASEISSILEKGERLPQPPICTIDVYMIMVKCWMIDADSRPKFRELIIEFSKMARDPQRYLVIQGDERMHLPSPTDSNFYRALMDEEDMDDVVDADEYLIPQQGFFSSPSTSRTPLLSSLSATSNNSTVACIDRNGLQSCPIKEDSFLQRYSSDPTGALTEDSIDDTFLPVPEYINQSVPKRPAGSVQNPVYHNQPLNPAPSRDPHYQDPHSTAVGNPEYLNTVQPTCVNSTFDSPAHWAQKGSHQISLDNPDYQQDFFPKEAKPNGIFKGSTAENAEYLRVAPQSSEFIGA
T1 sequence (P04626 23-1255): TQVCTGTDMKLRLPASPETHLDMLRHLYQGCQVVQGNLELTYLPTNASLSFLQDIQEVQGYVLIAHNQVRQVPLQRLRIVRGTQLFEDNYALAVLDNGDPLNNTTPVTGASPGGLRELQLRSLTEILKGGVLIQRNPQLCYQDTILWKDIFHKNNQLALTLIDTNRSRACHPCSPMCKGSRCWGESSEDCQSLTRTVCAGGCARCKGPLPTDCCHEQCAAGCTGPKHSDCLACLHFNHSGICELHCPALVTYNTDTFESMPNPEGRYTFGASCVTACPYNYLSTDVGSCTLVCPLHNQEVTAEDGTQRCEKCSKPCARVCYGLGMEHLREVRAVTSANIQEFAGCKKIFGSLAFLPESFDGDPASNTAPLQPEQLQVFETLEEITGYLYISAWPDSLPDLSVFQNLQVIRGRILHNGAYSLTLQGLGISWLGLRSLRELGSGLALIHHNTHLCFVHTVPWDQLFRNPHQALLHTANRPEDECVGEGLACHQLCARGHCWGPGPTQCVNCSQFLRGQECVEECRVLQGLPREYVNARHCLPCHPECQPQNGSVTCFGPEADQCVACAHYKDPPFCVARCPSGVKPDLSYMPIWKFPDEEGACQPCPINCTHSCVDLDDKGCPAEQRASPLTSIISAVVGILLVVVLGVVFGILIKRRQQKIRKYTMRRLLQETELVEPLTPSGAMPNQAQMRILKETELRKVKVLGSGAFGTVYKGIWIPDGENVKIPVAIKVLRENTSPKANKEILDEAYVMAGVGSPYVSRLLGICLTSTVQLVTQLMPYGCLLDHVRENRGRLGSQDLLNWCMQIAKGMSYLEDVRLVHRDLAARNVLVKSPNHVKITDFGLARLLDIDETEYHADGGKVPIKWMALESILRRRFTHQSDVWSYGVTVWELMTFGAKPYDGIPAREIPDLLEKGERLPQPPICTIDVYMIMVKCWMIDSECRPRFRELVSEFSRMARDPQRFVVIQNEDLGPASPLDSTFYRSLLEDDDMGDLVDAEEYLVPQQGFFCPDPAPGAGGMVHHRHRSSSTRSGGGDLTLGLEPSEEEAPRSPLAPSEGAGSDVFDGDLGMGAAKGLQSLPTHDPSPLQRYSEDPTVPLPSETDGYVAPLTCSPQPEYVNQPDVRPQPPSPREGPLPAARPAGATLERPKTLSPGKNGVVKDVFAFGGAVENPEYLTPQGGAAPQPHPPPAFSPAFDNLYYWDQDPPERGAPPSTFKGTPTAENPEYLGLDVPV

Row | Molecule | IC50 [1, 8] | IC50 [2, 9] | melting point | inhibition at 0.01 µM [3] | inhibition at 0.1 µM [3] | inhibition at 1 µM [3] | inhibition at 10 µM [3] | IC50 [3] | inhibition at 0.01 µM [4] | inhibition at 0.1 µM [4] | inhibition at 1 µM [4] | inhibition at 10 µM [4] | IC50 [5] | inhibition at 0.01 µM [6] | inhibition at 0.1 µM [6] | inhibition at 1 µM [6] | inhibition at 10 µM [6] | IC50 [6] | inhibition at 0.01 µM [7] | inhibition at 0.1 µM [7] | other results
1 | COc1cc2nc(SCC(=O)NN)n(-c3ccccc3)c(=O)c2cc1OC [3d, 2-((6,7-Dimethoxy-4-oxo-3-phenyl-3,4-dihydroquinazolin-2-yl)thio)acetohydrazide] | 770 ± 660 nM | 500 ± 290 nM | 166 to 168 °C |  |  |  |  |  |  |  |  |  |  |  |  |  |  |  |  |  | 
2 | CCOC(=O)CSc1nc2cc(OC)c(OC)cc2c(=O)n1Cc1ccccc1 [2i, Ethyl 2-((3-benzyl-6,7-dimethoxy-4-oxo-3,4-dihydroquinazolin-2-yl)thio)acetate] | 1160 ± 100 nM | 2700 ± 160 nM | 104 to 105 °C | 20.4% | 24.4% | 83.7% | 94.8% | 128 ± 24 nM | 4.28% | 40.5% | 37.8% | 83.7% | 173 ± 12 nM | 11.8% | 43.7% | 39.1% | 82.3% | 97 ± 19 nM | 8.13% | 31.8% | inhibition at 1 µM [7]: 20.3%; inhibition at 10 µM [7]: 77.8%; IC50 [7]: 2846 ± 14 nM
3 | CCOC(=O)CSc1nc2ccc(Cl)cc2c(=O)n1-c1ccccc1 [2a, Ethyl 2-((6-chloro-4-oxo-3-phenyl-3,4-dihydroquinazolin-2-yl)thio)acetate] | 2050 ± 640 nM | 1500 ± 10 nM | 85 to 87 °C |  |  |  |  |  |  |  |  |  |  |  |  |  |  |  |  |  | 
4 | NNC(=O)CSc1nc2ccc(F)cc2c(=O)n1Cc1ccccc1 [3g, 2-((3-Benzyl-6-fluoro-4-oxo-3,4-dihydroquinazolin-2-yl)thio)acetohydrazide] |  |  |  | 23.4% | 23.4% | 83.8% | 94.8% | 112 ± 16 nM | 14.9% | 47.1% | 74.1% | 89% | 207 ± 17 nM | 11.7% | 40.3% | 81.3% | 94% | 221 ± 14 nM | 3.73% | 40.9% | inhibition at 1 µM [7]: 71.9%; inhibition at 10 µM [7]: 90.3%; IC50 [7]: 294 ± 11 nM
5 | NNC(=O)CSc1nc2ccc(F)cc2c(=O)n1-c1ccccc1 [3b, 2-((6-Fluoro-4-oxo-3-phenyl-3,4-dihydroquinazolin-2-yl)thio)acetohydrazide] | 300 ± 60 nM | 1320 ± 120 nM | 192 to 194 °C |  |  |  |  |  |  |  |  |  |  |  |  |  |  |  |  |  | 
6 | NNC(=O)CSc1nc2c(F)cc(F)cc2c(=O)n1Cc1ccccc1 [3h, 2-((3-Benzyl-6,8-difluoro-4-oxo-3,4-dihydroquinazolin-2-yl)thio)acetohydrazide] | 630 ± 160 nM | 840 ± 50 nM | 185 to 186 °C | 2.73% | 44.4% | 77.3% | 89.8% | 248 ± 23 nM | 3.74% | 19.9% | 70.2% | 82.1% | 257 ± 16 nM | 8.4% | 38% | 29.2% | 87.2% | 128 ± 16 nM | 3.17% | 19.5% | inhibition at 1 µM [7]: 33.4%; inhibition at 10 µM [7]: 33.1%; IC50 [7]: 1370 ± 26 nM
7 | CCOC(=O)CSc1nc2ccc(Cl)cc2c(=O)n1Cc1ccccc1 [2f, Ethyl 2-((3-benzyl-6-chloro-4-oxo-3,4-dihydroquinazolin-2-yl)thio)acetate] | 1320 ± 430 nM | 1560 ± 240 nM | 73 to 75 °C | 2.33% | 38.9% | 74.8% | 89.8% | 264 ± 13 nM | 4.32% | 31.2% | 32.9% | 84% | 424 ± 12 nM | 2.18% | 19.1% | 29.2% | 83.2% | 584 ± 11 nM | 3.49% | 20.2% | inhibition at 1 µM [7]: 40.1%; inhibition at 10 µM [7]: 38.3%; IC50 [7]: 1920 ± 21 nM
8 | 2-((5-Chloro-6-methyl-4-oxo-3-phenyl-3,4-dihydroquinazolin-2-yl)thio)acetohydrazide [3e] |  |  |  |  |  |  |  |  |  |  |  |  |  |  |  |  |  |  |  |  | IC50 ([1]; mean ± SD of triplicate): 920 ± 110 nM; IC50 ([2]; mean ± SD of triplicate): 740 ± 230 nM
9 | CS(=O)(=O)CCNCc1ccc(-c2ccc3ncnc(Nc4ccc(OCc5cccc(F)c5)c(Cl)c4)c3c2)o1 [lapatinib, reference compound] | 11100 ± 1030 nM | 5900 ± 740 nM |  | 23.3% | 23.2% | 84.3% | 92.2% |  |  |  |  |  |  |  |  |  |  |  |  |  | IC50 ([1]; mean ± SD of triplicate): 12100 ± 1030 nM
10 | COc1cc2nc(SCC(=O)NN)n(Cc3ccccc3)c(=O)c2cc1OC [3i, 2-((3-Benzyl-6,7-dimethoxy-4-oxo-3,4-dihydroquinazolin-2-yl)thio)acetohydrazide] | 1360 ± 70 nM | 560 ± 310 nM |  | 17.9% | 20.3% | 84.3% | 94.8% | 79 ± 15 nM | 10.3% | 44.3% | 72.1% | 90.4% | 177 ± 32 nM | 3.38% | 41.2% | 77.2% | 92.4% | 181 ± 11 nM | 10.2% | 33.5% | inhibition at 1 µM [7]: 37.2%; inhibition at 10 µM [7]: 89.4%; IC50 [7]: 257 ± 23 nM
11 | CCOC(=O)CSc1nc2c(F)cc(F)cc2c(=O)n1-c1ccccc1 [2c, Ethyl 2-((6,8-difluoro-4-oxo-3-phenyl-3,4-dihydroquinazolin-2-yl)thio)acetate] | 490 ± 50 nM | 730 ± 180 nM | 151 to 153 °C |  |  |  |  |  |  |  |  |  |  |  |  |  |  |  |  |  | 
12 | NNC(=O)CSc1nc2ccc(Cl)cc2c(=O)n1-c1ccccc1 [3a, 2-((6-Chloro-4-oxo-3-phenyl-3,4-dihydroquinazolin-2-yl)thio)acetohydrazide] | 3000 ± 1200 nM | 200 ± 20 nM | 181 to 183 °C |  |  |  |  |  |  |  |  |  |  |  |  |  |  |  |  |  | 
13 | CCOC(=O)CSc1nc2cc(OC)c(OC)cc2c(=O)n1-c1ccccc1 [2d, Ethyl 2-((6,7-dimethoxy-4-oxo-3-phenyl-3,4-dihydroquinazolin-2-yl)thio)acetate] | 1230 ± 100 nM | 1560 ± 20 nM | 145 to 146 °C |  |  |  |  |  |  |  |  |  |  |  |  |  |  |  |  |  | 
14 | Ethyl 2-((5-chloro-6-methyl-4-oxo-3-phenyl-3,4-dihydroquinazolin-2-yl)thio)acetate [2e] |  |  |  |  |  |  |  |  |  |  |  |  |  |  |  |  |  |  |  |  | IC50 ([1]; mean ± SD of triplicate): 16400 ± 1800 nM; IC50 ([2]; mean ± SD of triplicate): 14900 ± 990 nM
15 | NNC(=O)CSc1nc2c(F)cc(F)cc2c(=O)n1-c1ccccc1 [3c, 2-((6,8-Difluoro-4-oxo-3-phenyl-3,4-dihydroquinazolin-2-yl)thio)acetohydrazide] | 1210 ± 10 nM | 330 ± 30 nM | 201 to 203 °C |  |  |  |  |  |  |  |  |  |  |  |  |  |  |  |  |  | 
16 | CCOC(=O)CSc1nc2ccc(F)cc2c(=O)n1-c1ccccc1 [2b, Ethyl 2-((6-fluoro-4-oxo-3-phenyl-3,4-dihydroquinazolin-2-yl)thio)acetate] | 2980 ± 300 nM | 15720 ± 70 nM | 124 to 127 °C |  |  |  |  |  |  |  |  |  |  |  |  |  |  |  |  |  | 
